Read-outs that look alike come from different tables or passages of the source.
How the values were obtained:
[1] = tested on: Human Lung Cancer Cell Line A-549; assay: In-vitro cell cytotoxicity (SRB) assay; format: cell-based
Description: To determine the cytotoxicity potential of the synthesized compounds. All samples were sent to the ACTREC, Tata Memorial Centre, Mumbai, India. They followed the standard protocol for sample analysis of the synthesized compounds. Adriamycin (ADR) was selected as a standard at 10, 20, 40, and 80 µg/mL to screen for indeno [1, 2-d] thiazolo [3,2-a] pyrimidine analogues. GI50 growth inhibition of 50% was calculated using the [(Ti − Tz)/(C − Tz)] ×100% formula, where C, controlled growth; Tz, time zero growth; and Ti, test growth at four concentration levels in the presence of the drug.
LC50 = Concentration of drug causing 50% cell kill
TGI = Concentration of drug causing total inhibition of cell growth
GI50 = Concentration of drug causing 50% inhibition of cell growth

[2] = tested on: ethyl-carbamate (EC)- induced LC; assay: In-vivo antineoplastic study, EC-induced lung carcinoma (weight, lipid profile, oxidative markers, histopathology, SEM); design: species or system albino Wistar rats; conditions: EC-induced LC rats; for Histopathological analysis of lung tissue (H&E): 10 mg/kg for 15 days; for Weight variation (change in body weight): 10 mg/kg for 15 days (9B, 12B p.o.; 5-FU i.p.); for Serum lipid profile (TC, TG, LDL, VLDL, HDL) / Oxidative changes (SOD, GSH, ProC, TBARs): 10 mg/kg p.o. for 15 days; for Oxidative changes (SOD, GSH, ProC, TBARs): lung tissue homogenate
Description: (§1) Six-week-old experimental male albino Wistar rats (100–120 g) were procured from the animal house facility of Babu Banarasi Das Northern India Institute of Technology Lucknow and approved by the Institutional Animal Ethical Committee (CPCSEA No. 809/PO/Re/S/03/CPCSEA) with approval no. BBDNIIT/IAEC/APR/2022/06. The animal welfare protocol and experiments were performed as per the CPCSEA guidelines for laboratory animals and ethics, Department of Animal Welfare, Government of India. They were randomly distributed into five groups of eight animals each. The experimental rats were acclimated under standard research laboratory conditions with free access to standard rat chow and water ad libitum. Group 1 (NC, normal control group): 0.25% CMC (2 mL/kg, p. o.), Group 2 (CC, carcinogen control/EC-exposed group): EC (0.375 mg/kg, four i.p. injections within a gap of three weeks between each dose over twelve weeks period), Group 3 (PC, positive control group): EC + 5-FU (10 mg/kg, i.p. for 15 days after EC induced LC), Group 4 (9B): EC + Compound 9B (10 mg/kg, p.o. for 15 days after EC induced LC), and Group 5 (12B): EC + Compound 12B (10 mg/kg, p.o. for 15 days after the induction of LC). At the end of the treatment, the animals were euthanized by cervical decapitation after anesthesia using a combination of diazepam and ketamine hydrochloride (5 mg/kg, and 100 mg/kg, i.m. respectively). The lung was excised immediately, rinsed in ice-cold saline, and stored at -80 °C for further study. Serum was collected and stored for further analysis.
Change in body weight (gm) was measured on the initial and final day of the experiment, and percent (%) weight gain/loss was calculated.
Serum total cholesterol (TC), triglycerides (TG), and high-density lipoprotein (HDL) levels were measured by using lipid profile kits (Agappe Diagnostic Ltd., Kerala, India). In brief, the assay was performed according to the manufacturer’s instructions. Low-density lipoprotein (LDL) and very-low-density lipoprotein (VLDL) levels were estimated and calculated using Friedewald’s formula [24].
Biochemical parameters such as protein carbonyl (PC), superoxide dismutase (SOD), glutathione (GSH), and thiobarbituric acid reactive substances (TBARs) were estimated in 10% lung tissue homogenate using our previously standardized laboratory protocols.
Histopathological studies were conducted to determine intracellular changes in lung tissue. Tissue samples were stained with H&E (haemotoxyline and eosin) using a methodology established previously at our laboratory for histological analysis and observed under an optical microscope (Steindroff N-120, 40X).
Lung tissue samples of 2–4 mm thickness were sectioned, and the samples were prepared by fixation, washing, post-fixation, and dehydration according to the standardized procedures of our laboratory. Finally, the samples were mounted on aluminium stubs with adhesive tape and examined for morphological changes using SEM (JEOL JSM-6490LV).

[3] = Pharmacokinetic study in rat plasma using HPLC; format: in vivo, albino Wistar rats; conditions: 10 mg/kg p.o.; for AUC(0-inf) / Cmax / MRT / Tmax / half-life: Wistar, po; for AUC(0-inf) / Cmax / MRT / Tmax / half-life / AUMC: rat plasma
Description: 9B and 12B compounds were orally administered at 10 mg/kg (p.o. dose obtained from acute toxicity studies) to rats, and blood was collected from the latetal tail vein at 0.083, 0.25, 0.5, 1, 2, 4, 8, 12, 16, 24, and 48 h. After collection, blood was centrifuged and plasma was separated, which was kept at -20 °C for further HPLC determination. Chromatographic separations were performed using a Shimadzu Prominence-I LC-2030 Plus equipped with HPLC and a photodiode array (PDA) detector. The mobile phase consisted of a gradient elution of 2:8, water: methanol, and a continuous flow rate of 1 mL/min in an RP-C18 column (5.0 µ particle sizes, 4.6 mm internal diameter, and 250 mm length) with different λmax of 310 and 320 nm, respectively, at 40 °C throughout the experiment. The column was washed using an elution solvent (water: methanol = 50:50) after each run, and the final output was analyzed using WinNonlin version 1.5.3 software.

albino Wistar rats = assay: Acute toxicity study (OECD 423); format: in vivo; conditions: oral, 15 days, 5, 10, and 15 mg/kg; for Toxic effect: histology of lung, liver, kidney
Description: It is necessary to investigate the safety and efficacy of the synthesized compounds in vivo, which was performed as per the guidelines of the Organization for Economic Cooperation and Development guidelines 423 (OECD 423). The synthesized compounds were orally administered at doses of 5, 10, and 15 mg/kg body weight to albino Wistar rats for 15 days (n = 5), and the animals were observed every day for any toxic signs at various doses. Morphological and oxidative stress parameters were used to determine dose-related toxicity.

[4] = tested on: IL-6, STAT-3, Bax, Bcl-2, Cyt-C, Caspase-9, and Caspase-3; assay: Western blot analysis of lung samples of EC-induced LC rats; format: in vivo, albino Wistar rats; conditions: 10 mg/kg p.o. for 15 days; for Expression of IL-6, STAT-3, and Bcl-2 / Expression of caspases (Caspase-3 and Caspase-9): vs CC group
Description: as §1
Protein expression levels of IL-6 (pro-inflammatory), STAT-3 (pro-inflammatory), Bax (pro-apoptotic), Bcl-2 (anti-apoptotic), Cyt-C (pro-apoptotic), Caspase-9, and Caspase-3 (pro-apoptotic/executor caspase) were assessed by immunoblotting. Proteins were electrophoresed on sodium dodecyl sulphate polyacrylamide gel (SDS-PAGE) and probed to detect molecules of interest in the mixture. The membrane was developed with enhanced chemiluminescence ECL, and images were obtained using Chemidoc XRS+ (Bio-rad).

[5] = tested on: IL-2, IL-6, IL-10, and IL-1β; assay: Cytokine estimation (ELISA) in EC-induced LC rats; format: in vivo, albino Wistar rats; conditions: 10 mg/kg p.o. for 15 days, vs CC group
Description: as §1, with “The lung was excised immediately, rinsed in ice-cold saline, and stored at -80 °C for further study. Serum was collected and stored for further analysis.” left out

[6] = Homo sapiens, A549 cell line, unit inferred, read-out: GI50 value

Structure (SMILES) | Histopathological analysis of lung tissue (H&E) [2] | Weight variation (change in body weight) [2] | AUC(0-inf) [3] | Cmax [3] | MRT [3] | Tmax [3] | half-life [3] | AUMC [3] | GI50 [1, 6] | Serum lipid profile (TC, TG, LDL, VLDL, HDL) [2] | Oxidative changes (SOD, GSH, ProC, TBARs) [2] | Antioxidant markers SOD, CAT, GSH, and TBARs values (albino Wistar rats) | Toxic effect (albino Wistar rats) | Expression of IL-6, STAT-3, and Bcl-2 [4] | Expression of caspases (Caspase-3 and Caspase-9) [4] | Levels of cytokine IL-1β, IL-2, IL-6, and IL-10 [5] | further results
COc1cccc2c1C(=O)c1c(O)c3c(c(O)c1C2=O)C[C@@](O)(C(=O)CO)C[C@@H]3O[C@H]1C[C@H](N)[C@H](O)[C@H](C)O1 [ADR, Adriamycin, reference compound] | – | – | – | – | – | – | – | – | – | – | – | – | – | – | – | – | TGI (concentration of drug causing total inhibition of cell growth) ([1]; A-549 cells, SRB assay): <10 mg/L; GI50 ([1]; Homo sapiens, A549, A-549 cells, SRB assay, read-out: GI50 (concentration of drug causing 50% inhibition of cell growth)): < 10 mg/L
O=c1[nH]cc(F)c(=O)[nH]1 [Compound 5-FU, 5-Fluorouracil, reference compound] | histopathological recovery of lung tissue architectures | 7.21 ± 1.75 gm | – | – | – | – | – | – | – | – | – | – | – | – | – | – | –
COc1ccc2c(c1)CC1=C2N=C2SC=CN2C1c1cc(OC)c(OC)c(OC)c1 (stereo not drawn) [Compound 9B, 8-methoxy-5-(3,4,5-trimethoxyphenyl)-5,6-dihydroindeno[1,2-d]thiazolo[3,2-a]pyrimidine] | histopathological recovery of lung tissue architectures | 6.01 ± 1.08 gm | 288 µg·h/mL | 30.8 ± 1.59 µg/mL | 10.6 ± 0.99 h | 4 h | 7.95 h | 3028.82 µg.h^2/ mL | < 20 mg/L | restored the alteration of the lipid profile | restoring the altered levels of SOD, GSH, ProC, and TBARs | no change | no toxic effect | decreased | increased | significantly decreased | LC50 ([1]; Homo sapiens, A549, A-549 cells, SRB assay, read-out: LC50 (concentration of drug causing 50% cell kill)): > 80 mg/L
Clc1ccc(C2C3=C(N=C4SC=CN42)c2ccccc2C3)cc1 (stereo not drawn) [Compound 12B, 5-(4-chlorophenyl)-5,6-dihydroindeno[1,2-d]thiazolo[3,2-a]pyrimidine] | histopathological recovery of lung tissue architectures | 17.52 ± 1.33 gm | 436 ± 8.59 µg·h/mL | 40.1 ± 2.06 µg/mL | 10.4 ± 1.08 h | 4 h | 11.5 h | 4557.60 µg.h^2/ mL | < 10 mg/L | restored the alteration of the lipid profile | restoring the altered levels of SOD, GSH, ProC, and TBARs | no change | no toxic effect | decreased | increased | significantly decreased | Biological availability (in words) ([3]; rat, compared with 9B): good biological availability as compared to 9B; Expression of Bax and Cyt-C ([4]; 12B compared with 9B): higher expression with 12B treatment than with 9B treatment

From paper PMC11201866, “Antiproliferative effect of indeno[1,2-d]thiazolo[3,2-a]pyrimidine analogues on IL-6 mediated STAT3 and role of the apoptotic pathway in albino Wistar rats of ethyl carbamate-induced lung carcinoma: In-silico, In-vitro, and In-vivo study” (Cancer Cell International, 2024)
